How the values were obtained:
[1] = target: Thymidine phosphorylase (Escherichia coli K-12) (UniProt P07650); assay: Inhibition of Escherichia coli thymidine phosphorylase assessed as ratio of phosphorolysis in presence of drug to control at 10 umol/l
[2] = target: T1, Thymidine phosphorylase (Rattus norvegicus) (UniProt Q5FVR2); assay: Inhibition of Sprague-Dawley rat lymphoma thymidine phosphorylase assessed as ratio of phosphorolysis in presence of drug to control at 10 umol/l
T1 sequence (whole entry): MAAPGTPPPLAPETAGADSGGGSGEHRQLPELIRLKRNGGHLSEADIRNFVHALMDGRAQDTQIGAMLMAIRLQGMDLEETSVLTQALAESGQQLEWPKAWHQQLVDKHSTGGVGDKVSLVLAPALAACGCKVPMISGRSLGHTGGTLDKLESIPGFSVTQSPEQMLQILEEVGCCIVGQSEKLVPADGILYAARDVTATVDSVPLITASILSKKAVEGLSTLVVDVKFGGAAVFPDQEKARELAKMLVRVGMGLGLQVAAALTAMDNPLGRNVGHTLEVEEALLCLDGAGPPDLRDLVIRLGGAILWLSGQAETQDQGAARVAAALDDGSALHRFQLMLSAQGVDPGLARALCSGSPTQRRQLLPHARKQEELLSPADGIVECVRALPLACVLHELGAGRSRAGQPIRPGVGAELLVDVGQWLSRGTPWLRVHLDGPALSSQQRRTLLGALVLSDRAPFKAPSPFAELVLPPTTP

Chain of Thymidine phosphorylase (Escherichia coli K-12) (P07650 whole entry, looked up): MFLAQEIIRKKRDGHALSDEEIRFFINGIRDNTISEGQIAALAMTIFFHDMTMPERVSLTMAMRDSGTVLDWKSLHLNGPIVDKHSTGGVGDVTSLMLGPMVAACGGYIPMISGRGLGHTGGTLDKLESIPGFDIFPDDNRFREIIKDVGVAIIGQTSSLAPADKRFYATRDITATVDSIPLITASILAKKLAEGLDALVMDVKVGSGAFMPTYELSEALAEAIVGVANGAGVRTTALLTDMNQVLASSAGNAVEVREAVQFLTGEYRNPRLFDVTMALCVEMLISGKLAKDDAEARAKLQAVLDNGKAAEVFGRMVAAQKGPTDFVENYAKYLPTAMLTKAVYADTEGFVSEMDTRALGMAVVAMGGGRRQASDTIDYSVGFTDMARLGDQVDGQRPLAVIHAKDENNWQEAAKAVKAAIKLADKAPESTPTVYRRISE

Row | SMILES | Ratio [1] | Ratio [2]
1 | Cc1c[nH]c(=O)n(C[C@@H](CF)OCP(=O)(O)O)c1=O | 0.93 | 
2 | Cc1c[nH]c(=O)n(CCOCP(=O)(O)O)c1=O | 1.07 | 1.44
3 | Cc1c[nH]c(=O)n(C[C@H](CF)OCP(=O)(O)O)c1=O | 0.98 | 0.75

More lines, now with the values ahead:

Row | Ratio [1] | Ratio [2] | SMILES
4 | 0.94 |  | Cc1c[nH]c(=O)n(C[C@@H](CO)OCP(=O)(O)O)c1=O
5 | 1.01 | 0.78 | Cc1c[nH]c(=O)n(C[C@H](CO)OCP(=O)(O)O)c1=O

— ChEMBL document CHEMBL1143866, “Syntheses of N3-substituted thymine acyclic nucleoside phosphonates and a comparison of their inhibitory effect towards thymidine phosphorylase” (Bioorg Med Chem Lett, 2008)
